Experimental data: patent publication US4892736A, “Intra-pocket drug delivery devices for treatment of periodontal diseases” (The Forsyth Dental Infirmary for Children, priority 1988, dated 1990)
Structures can show the parent of a compound that is named as a salt.

Tested on: cultivable periodontal microorganisms
Test: Concentration of tetracycline necessary to suppress growth of all cultivable periodontal microorganisms (agar plates)
Assay type: cell-based
Conditions: anaerobic, 35° C., 5 to 7 days
Experimental: Samples containing periodontal organisms taken from deep periodontal pockets of 5 patients were transferred to 10 ml of pre-reduced Ringer's solution, dispersed by 10 seconds of sonic oscillation at an amplitude of 10 microns, and dilutions of 1:20, 1:100, and 1:1000 were prepared. One-tenth milliliter of each dilution was streaked on trypticase soy agar containing 5% sheep blood and 0.3 μg/ml menadione in petri dishes. Identical plates were prepared containing 1, 8, 32, and 64 micrograms/milliliter of tetracycline hydrochloride. Inoculated plates were incubated at 35° C. in an anaerobic atmosphere at 80% nitrogen, 10% hydrogen, and 10% carbon dioxide for 5 to 7 days. Plates from dilutions providing separated colony growth were selected for counting to determine the total colony forming units on primary medium and each associated tetracycline-containing medium. Percentages of organisms grown at each concentration were computed. Values of 21.2%, 3.6%, 0.08%, and 0% were found on plates containing 1, 8, 32, and 64 micrograms/milliliter tetracycline respectively. These observations indicate that no cultivable periodontal organisms grow at tetracycline concentrations of 64 micrograms/milliliter, thereby establishing the primary design parameter for a local drug delivery system for periodontal therapy which would suppress growth of all cultivable periodontal microorganisms with continuous exposure of the organisms to tetracycline.

CN(C)C1C(=O)C(C(N)=O)=C(O)C2(O)C(=O)C3=C(O)c4c(O)cccc4C(C)(O)C3CC12 (centres unmarked) [tetracycline, tetracycline hydrochloride]
activity at 1 µg/mL (168 h, 1 microgram/milliliter tetracycline, % of colony forming units on primary medium, read-out: Percentage of organisms grown): 21.2% | activity at 8 µg/mL (168 h, 8 micrograms/milliliter tetracycline, % of colony forming units on primary medium, read-out: Percentage of organisms grown): 3.6% | activity at 32 µg/mL (168 h, 32 micrograms/milliliter tetracycline, % of colony forming units on primary medium, read-out: Percentage of organisms grown): 0.08% | activity at 64 µg/mL (168 h, 64 micrograms/milliliter tetracycline, % of colony forming units on primary medium, read-out: Percentage of organisms grown): 0% | MIC (tested 1, 8, 32, 64 micrograms/milliliter, read-out: Concentration at which no cultivable periodontal organisms grow): 64 µg/mL
